# Measurements: US20120088746A1, “AMIDE DERIVATIVES AS ION-CHANNEL LIGANDS AND PHARMACEUTICAL COMPOSITIONS AND METHODS OF USING THE SAME” (PFIZER INC., priority 2006, published 2012)
# Target: human VR1 (Homo sapiens, UniProt Q8NER1)
# Test: Acid stimulation assay (acid-induced intracellular calcium change, FDSS 6000)
# Assay type: cell-based
# Details: final assay buffer pH5.8, 15 min pre-incubation, read-out: IC50 (nM) Low pH
# Source text: VR1 antagonistic activity can be determined by the Ca^2+ imaging assay using human VR1 highly expressing cells. The cells that highly express human VR1 receptors are obtainable from several different conventional methods. The one standard method is cloning from human Dorsal Root Ganglion (DRG) or kidney according to the methods such as described in the journal article; Nature, 389, pp 816-824, 1997. Alternatively VR1 receptors highly expressing human keratinocytes are also known and published in the journal article (Biochemical and Biophysical Research Communications, 291, pp 124-129, 2002). […] Furthermore, the method to up regulate human VR1 gene, which is usually a silent gene or don't produce detectable level of VR1 receptors, is also available to obtain propriety cells. Such genetic modification method was described in detail; Nat. Biotechnol., 19, pp 440-445, 2001.
# The cells that express human VR1 receptors were maintained in culture flask at 37° C. in an environment containing 5% CO2 until use in the assay. The intracellular Ca^2+ imaging assay to determine VR1 antagonistic activities were done by following procedures.
# The culture medium was removed from the flask and fura-2/AM fluorescent calcium indicator was added to the flask at a concentration of 5 μM in the medium. The flask was placed in CO2 incubator and incubated for 1 hour. Then the cells expressing the human VR1 receptors were detached from the flask follow by washing with phosphate buffer saline, PBS(−) and re-suspended in assay buffer. The 80 tit of aliquot of cell suspension (3.75×10^5 cells/ml) was added to the assay plate and the cells were spun down by centrifuge (950 rpm, 20° C., 3 minutes).
# (§1) The Acid-induced changes in the intracellular calcium concentration were monitored using FDSS 6000 (Hamamatsu Photonics, Japan), a fluorometric imaging system. The cell suspension in resting buffer (HBSS supplemented with 10 mM HEPES, pH 7.4) were pre-incubated with varying concentrations of the test compounds or resting buffer (buffer control) for 15 minutes at room temperature under the dark condition. The cells were automatically added the stimulating solution (HBSS supplemented with MES, final assay buffer pH5.8) by the FDSS 6000.
# as §1, with “7.4) was” for “7.4) were”, “under” for “under the”, “dark conditions.” for “dark condition.”, “added to” for “added”
# Sequence of human VR1 (Q8NER1 whole entry): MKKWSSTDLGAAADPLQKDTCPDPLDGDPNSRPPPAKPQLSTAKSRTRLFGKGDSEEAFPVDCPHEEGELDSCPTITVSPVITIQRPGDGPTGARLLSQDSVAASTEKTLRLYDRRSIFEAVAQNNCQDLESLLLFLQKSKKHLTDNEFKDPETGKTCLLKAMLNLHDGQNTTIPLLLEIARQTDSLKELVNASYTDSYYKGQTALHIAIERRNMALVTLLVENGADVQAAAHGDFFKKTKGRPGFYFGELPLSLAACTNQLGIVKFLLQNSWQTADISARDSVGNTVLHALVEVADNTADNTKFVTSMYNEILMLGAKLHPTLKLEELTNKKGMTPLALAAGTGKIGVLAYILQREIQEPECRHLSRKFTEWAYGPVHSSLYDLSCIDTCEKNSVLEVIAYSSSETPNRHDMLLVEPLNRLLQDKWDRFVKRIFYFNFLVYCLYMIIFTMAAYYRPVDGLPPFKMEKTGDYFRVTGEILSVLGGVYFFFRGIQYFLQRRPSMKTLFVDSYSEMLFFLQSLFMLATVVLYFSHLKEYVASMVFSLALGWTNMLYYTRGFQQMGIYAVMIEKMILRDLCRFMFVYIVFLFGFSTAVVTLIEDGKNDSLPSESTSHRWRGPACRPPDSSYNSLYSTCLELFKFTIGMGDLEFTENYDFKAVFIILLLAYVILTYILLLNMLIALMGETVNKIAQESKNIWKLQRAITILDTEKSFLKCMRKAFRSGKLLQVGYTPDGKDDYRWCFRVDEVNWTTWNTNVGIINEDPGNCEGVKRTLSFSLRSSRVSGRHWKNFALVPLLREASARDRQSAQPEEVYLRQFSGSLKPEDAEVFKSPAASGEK
row,Compound,IC50 [nM]
1,"C[C@@H](NC(=O)c1cnc2cc(C(F)(F)F)ccc2c1)c1ccc(NS(C)(=O)=O)c(F)c1 [Example 34, N-((1R)-1-{3-FLUORO-4-[(METHYLSULFONYL)AMINO]PHENYL}ETHYL)-7-(TRIFLUORO-METHYL)QUINOLINE-3-CARBOXAMIDE]",26
2,Cc1cc([C@@H](C)NC(=O)c2ccc3cc(C(C)(C)O)ccc3n2)ccc1NS(C)(=O)=O [Example 16],71
3,"Cc1cc([C@@H](C)NC(=O)c2cnc3cc(C(C)(C)C)ccc3c2)ccc1NS(C)(=O)=O [Example 33, 7-TERT-BUTYL-N-((1R)-1-{3-METHYL-4-[(METHYLSULFONYL)AMINO]PHENYL}ETHYL)-QUINOLINE-3-CARBOXAMIDE]",56
4,"CC(C)c1ccc2cc(C(=O)N[C@H](C)c3cc(F)c(NS(C)(=O)=O)c(F)c3)ccc2n1 [Example 31, N-((1R)-1-{3,5-DIFLUORO-4-[(METHYLSULFONYL)AMINO]PHENYL}ETHYL)-2-ISOPROPYL-QUINOLINE-6-CARBOXAMIDE]",47
5,"Cc1cc([C@@H](C)NC(=O)c2ccc3ccccc3c2)ccc1NS(C)(=O)=O [Example 19, NAPHTHALENE-2-CARBOXYLIC ACID [(R)-1-(4-METHANESULFONYLAMINO-3-METHYLPHENYL)ETHYL]AMIDE]",63
6,"C[C@@H](NC(=O)c1ccc2cc(C(F)(F)F)ccc2n1)c1cc(F)c(NS(C)(=O)=O)c(F)c1 [Example 3, ((1R)-1-{3,5-DIFLUORO-4-[(METHYLSULFONYL)AMINO]PHENYL}ETHYL)-6-(TRIFLUORO-METHYL)QUINOLINE-2-CARBOXAMIDE]",4
7,"Cc1cc([C@@H](C)NC(=O)c2ccc3cc(Br)ccc3c2)ccc1NS(C)(=O)=O [Example 17, 6-BROMONAPHTHALENE-2-CARBOXYLIC ACID [(R)-1-(4-METHANESULFONYLAMINO-3-METHYLPHENYL)ETHYL]AMIDE]",14
8,"CC(C)c1ccc2cc(C(=O)N[C@H](C)c3cc(F)c(NS(C)(=O)=O)c(F)c3)cnc2c1 [Example 39, N-((1R)-1-{3,5-DIFLUORO-4-[(METHYLSULFONYL)AMINO]PHENYL}ETHYL)-7-ISOPROPYL-QUINOLINE-3-CARBOXAMIDE]",13
9,"CCOc1ccc2cc(C(=O)N[C@H](C)c3ccc(NS(C)(=O)=O)c(C)c3)ccc2n1 [Example 44, 2-ETHOXY-N-((1R)-1-{3-METHYL-4-[(METHYLSULFONYL)AMINO]PHENYL}ETHYL)-QUINOLINE-6-CARBOXAMIDE]",15

# Results, then the molecule that gave them:
row,IC50 [nM],Compound
1,5,"Cc1cc([C@@H](C)NC(=O)c2ccc3nc(C4(C)CC4)ccc3c2)c(F)cc1NS(C)(=O)=O [Example 108, N-((1R)-1-{2-FLUORO-5-METHYL-4-[(METHYLSULFONYL)AMINO]PHENYL}ETHYL)-2-(1-METHYLCYCLOPROPYL)QUINOLINE-6-CARBOXAMIDE]"
2,36,"Cc1cc([C@@H](C)NC(=O)c2cnc3cc(C(F)(F)F)ccc3c2)c(Cl)cc1NS(C)(=O)=O [Example 53, (R)—N-(1-(2-CHLORO-5-METHYL-4-(METHYLSULFONAMIDO)PHENYL)ETHYL)-7-(TRIFLUOROMETHYL)QUINOLINE-3-CARBOXAMIDE]"
3,26,"Cc1cc([C@@H](C)NC(=O)c2ccc3nc(C(F)(F)F)cc(N4CCCCC4)c3c2)c(F)cc1NS(C)(=O)=O [Example 70, 4-PIPERIDIN-1-YL-2-TRIFLUOROMETHYL-QUINOLINE-6-CARBOXYLIC ACID [(R)-1-(2-FLUORO-4-METHANESULFONYLAMINO-5-METHYL-PHENYL)-ETHYL]-AMIDE]"
4,630,"Cc1cc([C@@H](C)NC(=O)c2ccc3nc(C(F)(F)F)cc(N4CCC(CO)CC4)c3c2)c(F)cc1NS(C)(=O)=O [Example 99, 4-(4-HYDROXYMETHYL-PIPERIDIN-1-YL)-2-TRIFLUOROMETHYL-QUINOLINE-6-CARBOXYLIC ACID [(R)-1-(2-FLUORO-4-METHANESULFONYLAMINO-5-METHYL-PHENYL)-ETHYL]-AMIDE]"
5,6,"Cc1cc([C@@H](C)NC(=O)c2ccc3nc(C(F)(F)F)nc(N4CCC(Cc5ccccc5)CC4)c3c2)c(F)cc1NS(C)(=O)=O [Example 106, 4-(4-BENZYL-PIPERIDIN-1-YL)-2-TRIFLUOROMETHYL-QUINAZOLINE-6-CARBOXYLIC ACID [(R)-1-(2-FLUORO-4-METHANESULFONYLAMINO-5-METHYL-PHENYL)-ETHYL]-AMIDE]"
6,147,"Cc1cc([C@@H](C)NC(=O)c2ccc3cc(-n4cccn4)ccc3c2)c(F)cc1NS(C)(=O)=O [Example 105, 6-PYRAZOL-1-YL-NAPHTHALENE-2-CARBOXYLIC ACID [(R)-1-(2-FLUORO-4-METHANESULFONYLAMINO-5-METHYL-PHENYL)-ETHYL]-AMIDE]"
7,41,Cc1cc([C@@H](C)NC(=O)c2ccc3cc(C(C)(O)C(F)(F)F)ccc3c2)c(F)cc1NS(C)(=O)=O (stereo partly shown) [Example 101]
